# Data reported in PubChem BioAssay AID1259411 (Chemical Carcinogenesis Research Information System (CCRIS), 2018).
# Calls of active or inactive are those of the source. No rule for the calls is given here.
# Test system: rodent carcinogenicity bioassays, tumor incidence
# Test: CCRIS carcinogenicity studies
# Method in brief: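 Archive of carcinogenicity, mutagenicity, tumor promotion and tumor inhibition results drawn from journals, NCI reports and other sources, expert-reviewed; covers 1985-2011 and is no longer updated.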
smiles,measurement,setting,value
COc1cccc2c1C(=O)c1c(O)c3c(c(O)c1C2=O)C[C@@](O)(C(=O)CO)C[C@@H]3O[C@H]1C[C@H](N)[C@H](O)[C@H](C)O1,carcinogen call,"Species: RAT, Strain/Sex: SPRAGUE-DAWLEY/FEMALE, Route: INTRAVENOUS, Dose: 0, 5, 10 MG/KG IN SALINE SOLUTION ONCE (STUDY DURATION: 1 YR), Dose: 0, 5, 10 MG/KG IN SALINE SOLUTION ONCE (STUDY DURATION: 1 YR), Tumor Site: Type of Lesion: MAMMARY GLAND: FIBROADENOMA, ADENOCARCINOMA",active; positive
same,carcinogen call,"Species: RAT, Strain/Sex: SPRAGUE-DAWLEY/MALE, Route: INTRAVENOUS, Dose: 0, 5, 10 MG/KG IN SALINE SOLUTION ONCE (STUDY DURATION: 1 YR), Dose: 0, 5, 10 MG/KG IN SALINE SOLUTION ONCE (STUDY DURATION: 1 YR), Tumor Site: Type of Lesion: MAMMARY GLAND: ADENOCARCINOMA",active; positive
O=[N+]([O-])c1ccc2ccc3cccc4c5ccccc5c1c2c34,carcinogen call,"Species: MOUSE, Strain/Sex: B6C3F1/MALE, Route: INTRAPERITONEAL, Dose: 0, 400 NMOL IN 35 µL DMSO ON DAYS 1 (1/7 TOTAL DOSE), 8 (2/7 TOTAL DOSE), AND 15 (4/7 TOTAL DOSE) AFTER BIRTH (STUDY DUR",inactive; negative
O=C(O)CN(CCN(CC(=O)O)CC(=O)O)CC(=O)O,carcinogen call,"Species: MOUSE, Strain/Sex: B6C3F1/FEMALE, Route: ORAL, Dose: 0, 3750, 7500 PPM IN DIET, Dose: 0, 3750, 7500 PPM IN DIET",inactive; negative
same,carcinogen call,"Species: MOUSE, Strain/Sex: B6C3F1/MALE, Route: ORAL, Dose: 0, 3750, 7500 PPM IN DIET, Dose: 0, 3750, 7500 PPM IN DIET",inactive; negative
same,carcinogen call,"Species: RAT, Strain/Sex: F344/FEMALE, Route: ORAL, Dose: 0, 3750, 7500 PPM IN DIET, Dose: 0, 3750, 7500 PPM IN DIET",inactive; negative
same,carcinogen call,"Species: RAT, Strain/Sex: F344/MALE, Route: ORAL, Dose: 0, 3750, 7500 PPM IN DIET, Dose: 0, 3750, 7500 PPM IN DIET",inactive; negative
S=P(N1CC1)(N1CC1)N1CC1,carcinogen call,"Species: MOUSE, Strain/Sex: B6C3F1/FEMALE, Route: INTRAPERITONEAL, Dose: 0, 1.15, 2.3 MG/KG 3/WK FOR 43-52 WK (STUDY DURATION: 86-87 WK), Dose: 0, 1.15, 2.3 MG/KG 3/WK FOR 43-52 WK (STUDY DURATION: 86-87 WK), Tumor Site: Type of Lesion: HEMATOPOIETIC SYSTEM (LEUKEMIA): LYMPHOCYTIC LEUKEMIA, LYMPHATIC SYSTEM: LYMPHOMA",active; positive
same,carcinogen call,"Species: MOUSE, Strain/Sex: B6C3F1/MALE, Route: INTRAPERITONEAL, Dose: 0, 1.15, 2.3 MG/KG 3/WK FOR 52 WK (STUDY DURATION: 56-87 WK), Dose: 0, 1.15, 2.3 MG/KG 3/WK FOR 52 WK (STUDY DURATION: 56-87 WK), Tumor Site: Type of Lesion: INTEGUMENTARY SYSTEM (SKIN): SQUAMOUS CELL CARCINOMA, HEMATOPOIETIC SYSTEM (LEUKEMIA), LYMPHATIC SYSTEM: LYMPHOMA, EAR (, Tumor Site: Type of Lesion: INTEGUMENTARY SYSTEM (SKIN): SQUAMOUS CELL CARCINOMA, HEMATOPOIETIC SYSTEM (LEUKEMIA), LYMPHATIC SYSTEM: LYMPHOMA, EAR (",active; positive
same,carcinogen call,"Species: RAT, Strain/Sex: SPRAGUE-DAWLEY/FEMALE, Route: INTRAPERITONEAL, Dose: 0, 0.7, 1.4, 2.8 MG/KG 3/WK FOR 21-52 WK (STUDY DURATION: 21-87 WK), Dose: 0, 0.7, 1.4, 2.8 MG/KG 3/WK FOR 21-52 WK (STUDY DURATION: 21-87 WK), Tumor Site: Type of Lesion: MAMMARY GLAND: ADENOCARCINOMA, PITUITARY GLAND: CHROMOPHOBE ADENOMA",active; positive
same,carcinogen call,"Species: RAT, Strain/Sex: SPRAGUE-DAWLEY/MALE, Route: INTRAPERITONEAL, Dose: 0, 0.7, 1.4, 2.8 MG/KG 3/WK FOR 19-52 WK (STUDY DURATION: 19-87 WK), Dose: 0, 0.7, 1.4, 2.8 MG/KG 3/WK FOR 19-52 WK (STUDY DURATION: 19-87 WK), Tumor Site: Type of Lesion: INTEGUMENTARY SYSTEM (SKIN): SQUAMOUS CELL CARCINOMA, INTEGUMENTARY SYSTEM (SUBCUTANEOUS TISSUE): SARCOMA, HEMATOPOIETIC, Tumor Site: Type of Lesion: INTEGUMENTARY SYSTEM (SKIN): SQUAMOUS CELL CARCINOMA, INTEGUMENTARY SYSTEM (SUBCUTANEOUS TISSUE): SARCOMA, HEMATOPOIETIC",active; positive
CC(N)Cc1ccccc1 (stereo not given),carcinogen call,"Species: MOUSE, Strain/Sex: B6C3F1/FEMALE, Route: ORAL, Dose: 0, 20, 100 PPM IN DIET FOR 103 WK (STUDY DURATION: 105 WK), Dose: 0, 20, 100 PPM IN DIET FOR 103 WK (STUDY DURATION: 105 WK)",inactive; negative
same,carcinogen call,"Species: MOUSE, Strain/Sex: B6C3F1/MALE, Route: ORAL, Dose: 0, 20, 100 PPM IN DIET FOR 103 WK (STUDY DURATION: 105 WK), Dose: 0, 20, 100 PPM IN DIET FOR 103 WK (STUDY DURATION: 105 WK)",inactive; negative
same,carcinogen call,"Species: RAT, Strain/Sex: F344/FEMALE, Route: ORAL, Dose: 0, 20, 100 PPM IN DIET FOR 103 WK (STUDY DURATION: 105 WK), Dose: 0, 20, 100 PPM IN DIET FOR 103 WK (STUDY DURATION: 105 WK)",inactive; negative
same,carcinogen call,"Species: RAT, Strain/Sex: F344/MALE, Route: ORAL, Dose: 0, 20, 100 PPM IN DIET FOR 103 WK (STUDY DURATION: 105 WK), Dose: 0, 20, 100 PPM IN DIET FOR 103 WK (STUDY DURATION: 105 WK)",inactive; negative
ClC[C@@H]1O[C@@H]1Cl,carcinogen call,"Species: MOUSE, Strain/Sex: ICR/FEMALE, Route: DERMAL, Dose: 10 MG IN 0.1 ML ACETONE 3/WK FOR LIFE, Tumor Site: Type of Lesion: INTEGUMENTARY SYSTEM (SKIN): PAPILLOMA, SQUAMOUS CELL CARCINOMA",active; positive
same,carcinogen call,"Species: MOUSE, Strain/Sex: ICR/FEMALE, Route: SUBCUTANEOUS, Dose: 500 UG IN 0.05 ML TRICAPRYLIN 1/WK FOR LIFE, Tumor Site: Type of Lesion: INJECTION SITE: FIBROSARCOMA",active; positive
CCNc1nc(Cl)nc(NC(C)(C)C#N)n1,carcinogen call,"Species: Mouse, Strain/Sex: CD/Female (50 per group; 100 per group for controls), Route: Oral, Dose: 0, 10, 25, 1,000 ppm of 98% pure cyanazine in feed for two yr, Dose: 0, 10, 25, 1,000 ppm of 98% pure cyanazine in feed for two yr",inactive; negative
same,carcinogen call,"Species: Mouse, Strain/Sex: CD/Male (50 per group; 100 per group for controls), Route: Oral, Dose: 0, 10, 25, 1,000 ppm of 98% pure cyanazine in feed for two yr, Dose: 0, 10, 25, 1,000 ppm of 98% pure cyanazine in feed for two yr",inactive; negative
same,carcinogen call,"Species: RAT, Strain/Sex: CRL:CD BR/FEMALE, Route: ORAL, Dose: 0, 1, 5, 25, 50 PPM FOR 104 WK (STUDY DURATION: 104 WK), Dose: 0, 1, 5, 25, 50 PPM FOR 104 WK (STUDY DURATION: 104 WK)",inactive; negative
